SMILES strings stand for the structures. pEC50: −log10 of the molar value.

Series [1] is described as follows: MTT cell proliferation assay, ZR-75-1. The note with it: human, ZR-75-1 cells, concentration causing 50% cell death of initial cell count over 24 hours, 1% DMSO. It counts as cell-based. The procedure: (§1) The antitumor activities of the compounds of the invention were evaluated by a cellular proliferation assay. The MTT [3-(4,5-dimethylthiazol-2-yl)-2,5-diphenyltetrazolium bromide] cell proliferation assay, first described by Mosmann (Mosmann T., “Rapid colorimetric assay for cellular growth and survival: application to proliferation and cytotoxicity assays,” J. Immunol. Methods 1983 Dec. 16; 65(1-2):55-63, and incorporated by reference in its entirety) is based on the ability of active mitochondrial reductase enzymes from viable cells to cleave the tetrazolium rings of the pale yellow MTT. The cleavage reaction form a purple formazan crystals which is largely impermeable to cell membranes resulting in its accumulation within healthy cells. Solubilisation of the cells by addition of a detergent liberates and solubilizes the formazan crystals. The number of surviving cells is directly proportional to the level of the formazan product created. The color can then be quantified spectrophotometrically. The production of purple formazan in cells treated with a compound is measured relative to the production in control cells, and dose-response curves can be generated. This assay measures the cell proliferation rate and conversely, when metabolic events lead to apoptosis or necrosis, the reduction in cell viability, thus also allowing the evaluation of the cytotoxicity of the analogues synthesized in the laboratory.
(§2) For Tables 3 and 4, the assays were performed with 1% DMSO. The abbreviation “n.d.” means “not determined.” The values EC50, CC50, and SI have the following definitions.
(§3) Cell growth equals total cell count without any inhibitor after 72 hours minus initial cell count. Total cell counts after 72 hrs of growth range from 230 to 346% of initial cell counts depending on the cell line.
(§4) Total cell counts after 24 hrs of growth range from 103 to 109% of initial cell counts depending on the cell line.
(§5) SI: Selectivity Index is the ratio CC50/EC50.

Series [2] concerns ZR-75-1. As to the kind of experiment: MTT cell proliferation assay, ZR-75-1. The note with it: Homo sapiens, ZR-75-1, 72 h, concentration reducing cell growth by 50% after 72 hours, 1% DMSO. In kind it is cell-based. The procedure: as §1, §2, §3, §4, §5
Series [3] deals with T1, Drosophila melanogaster dNK (Drosophila melanogaster, UniProt Q9XZT6).
T1 sequence (Q9XZT6 1-250): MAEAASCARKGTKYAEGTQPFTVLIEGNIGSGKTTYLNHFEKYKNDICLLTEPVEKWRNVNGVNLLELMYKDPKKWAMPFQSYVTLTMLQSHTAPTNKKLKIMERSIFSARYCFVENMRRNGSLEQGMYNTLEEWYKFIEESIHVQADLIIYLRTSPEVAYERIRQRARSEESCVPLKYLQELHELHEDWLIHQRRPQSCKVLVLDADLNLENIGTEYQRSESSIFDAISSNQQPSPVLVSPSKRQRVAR
As to the kind of experiment: Phosphorylation assay (spectrophotometric coupled-enzyme), D. melanogaster dNK. In kind it is biochemical. The note with it: substrate at 100 μM, 37° C., 1 mM ATP, triplicate. The procedure:
Compounds of the invention were also tested in a phosphorylation assay using three deoxynucleoside kinases. […] The compounds were at substrate concentration of 100 μM.
Kinetic assay. […] Briefly, the individual nucleosides at 100 μM were prepared in reaction buffer containing 50 mM Tris-HCl (pH 7.5), 0.1 M KCl, 5 mM MgCl2, 1 mM DTT, 1 mM ATP, 0.21 mM phosphoenolpyruvate, 0.18 mM NADH, and 2 units/ml pyruvate kinase and 2 units/ml lactate dehydrogenase (Roche Biochemicals, Indianapolis, Ind.). Assays were performed at 37° C. by measuring the absorbance change at 340 nm. The enzyme amount was adjusted to limit NADH turnover to 10% over the time of the experiment. All experiments were performed in triplicate.

Series [4] is described as follows: in vitro. The following applies: human, MOLT-4 cells.
Series [5] is described as follows: in vitro. The following applies: human, NCI H1395 cells.
In series [6] the target is Thermotoga maritima thymidine kinase (Thermotoga maritima, UniProt Q9WYN2). The series is described as follows: Phosphorylation assay (spectrophotometric coupled-enzyme), T. maritima TK. In kind it is biochemical. The following applies: substrate at 100 μM, 37° C., 1 mM ATP, triplicate. The procedure:
Compounds of the invention were also tested in a phosphorylation assay using three deoxynucleoside kinases. The kinases include human dCK, which is responsible for the activation of numerous nucleoside analog prodrugs; Drosophila melanogaster dNK, which is the fastest known kinases with the broadest substrate specificity profile; and Thermotoga maritima thymidine kinase, which is a good surrogate for human thymidine kinase 1, a member of the distinct type II kinase subfamily. The compounds were at substrate concentration of 100 μM.
Kinetic assay. Substrate phosphorylation was determined using a spectrophotometric coupled-enzyme assay (Munch-Petersen et al. (2000) J. Biol. Chem. vol. 275p. 66′73-66′79; Schelling et al. (2001) Anal. Biochem vol. 295 p. 82-8′7). Briefly, the individual nucleosides at 100 μM were prepared in reaction buffer containing 50 mM Tris-HCl (pH 7.5), 0.1 M KCl, 5 mM MgCl2, 1 mM DTT, 1 mM ATP, 0.21 mM phosphoenolpyruvate, 0.18 mM NADH, and 2 units/ml pyruvate kinase and 2 units/ml lactate dehydrogenase (Roche Biochemicals, Indianapolis, Ind.). Assays were performed at 37° C. by measuring the absorbance change at 340 nm. The enzyme amount was adjusted to limit NADH turnover to 10% over the time of the experiment. All experiments were performed in triplicate.

A short description of series [7]: in vitro. The following applies: human, NCI H2052 cells.
Series [8] in a line: MTT cell proliferation assay, PFSK-1. In kind it is cell-based. The note with it: human, PFSK-1 cells, concentration causing 50% cell death of initial cell count over 24 hours, 1% DMSO. The procedure: (§6) The antitumor activities of the compounds of the invention were evaluated by a cellular proliferation assay. […] The cleavage reaction form a purple formazan crystals which is largely impermeable to cell membranes resulting in its accumulation within healthy cells. Solubilisation of the cells by addition of a detergent liberates and solubilizes the formazan crystals. The number of surviving cells is directly proportional to the level of the formazan product created. The color can then be quantified spectrophotometrically. The production of purple formazan in cells treated with a compound is measured relative to the production in control cells, and dose-response curves can be generated. This assay measures the cell proliferation rate and conversely, when metabolic events lead to apoptosis or necrosis, the reduction in cell viability, thus also allowing the evaluation of the cytotoxicity of the analogues synthesized in the laboratory.
as §2
(§7) Cell growth equals total cell count without any inhibitor after 72 hours minus initial cell count.
as §5

Series [9] deals with PFSK-1. The series is described as follows: MTT cell proliferation assay, PFSK-1. In kind it is cell-based. The following applies: Homo sapiens, PFSK-1, 72 h, concentration reducing cell growth by 50% after 72 hours, 1% DMSO. The procedure: as §6, §2, §7, §5
In general terms: Formazan colour is commonly taken as a measure of viable cells.

Sequence of Thermotoga maritima thymidine kinase (Q9WYN2 whole entry): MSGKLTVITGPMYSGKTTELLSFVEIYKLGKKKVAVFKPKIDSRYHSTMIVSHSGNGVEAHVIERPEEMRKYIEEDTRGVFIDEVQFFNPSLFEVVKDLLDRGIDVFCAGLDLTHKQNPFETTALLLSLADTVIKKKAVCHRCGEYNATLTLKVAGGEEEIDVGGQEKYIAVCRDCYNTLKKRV

Regarding `Cc1cc(=O)[nH]c(=O)n1[C@H]1CC(C)(CO)[C@@H](CO)O1` (mixture of isomers) [LCB-1021, 1-(4,5-Bis-hydroxymethyl-4-methyl-tetrahydro-furan-2-yl)-6-methyl-1H-pyrimidine-2,4-dione], the CC50 at 24 h in series [1], in [4], in [5], in series [7] and in series [8] was over 500 µM each time. In addition, the pEC50 in [2] and in series [9] was under 3.30 each time. In series [3], the “D. melanogaster dNK substrate phosphorylation” value is reported as <0.1 10^6 μmol/min mg. Also, the “T. maritima TK substrate phosphorylation” value in [6] is listed as 2.2 10^−3 μmol/min mg.

In the case of `COC(=O)C1(C)C[C@H](n2cc(F)c(=O)[nH]c2=O)O[C@@H]1CO` (mixture of isomers) [LCB-1022, 5-(5-Fluoro-2,4-dioxo-3,4-dihydro-2H-pyrimidin-1-yl)-2-hydroxymethyl-3-methyl-tetrahydro-furan-3-carboxylic acid methyl ester], the “D. melanogaster dNK substrate phosphorylation” value in series [3] (listed as LCB-1022-1) is 1.88 10^6 μmol/min mg. For the same molecule, the CC50 at 24 h in [4] was over 500 µM. The “T. maritima TK substrate phosphorylation” value in series [6] (listed as LCB-1022-1) is 3 10^−3 μmol/min mg.

Turning to `C[C@@]12CC(n3cc(F)c(N)nc3=O)O[C@@H]1COC2=O` (mixture of isomers) [LCB-1028], the CC50 at 24 h in [1], in [4], in series [5], in series [7] and in series [8] was over 500 µM in each case. Further, the pEC50 in series [2] and in [9] was under 3.30 each time.

`C[C@@]12CC(n3ccc(N)nc3=O)O[C@@H]1COC2=O` (mixture of isomers) [LCB-1029]: the CC50 at 24 h in [1], in [4], in series [5], in series [7] and in series [8] was over 500 µM each time. Besides, the pEC50 in series [2] and in [9] was under 3.30 each time.

In the case of `CC1(C(N)=O)CC(n2cc(F)c(N)nc2=O)O[C@@H]1CO` (mixture of isomers) [LCB-1030], the CC50 at 24 h in series [1], in series [4], in series [5], in series [7] and in series [8] was over 500 µM in each case. Besides, the pEC50 in series [2] and in [9] was under 3.30 throughout.

With `Cc1cc(=O)[nH]c(=O)n1[C@H]1CC2(C)C(=O)OC[C@H]2O1` (single isomer, unassigned) [LCB-1020, 6-Methyl-1-(3a-methyl-4-oxo-hexahydro-furo[3,4-b]furan-2-yl)-1H-pyrimidine-2,4-dione], the CC50 at 24 h in [1], in series [4], in series [5], in series [7] and in series [8] was over 500 µM throughout. For the same molecule, the pEC50 in series [2] and in series [9] was under 3.30 each time. Also, the “D. melanogaster dNK substrate phosphorylation” value in series [3] is on record as <0.1 10^6 μmol/min mg. In addition, the “T. maritima TK substrate phosphorylation” value in [6] is <1 10^−3 μmol/min mg.

With `CCOC(=O)[C@@H]1O[C@H](n2cc(F)c(=O)[nH]c2=O)CC1(C)C(=O)OCC` (stereo in doubt) [LCB-1024, (2R,5S)-diethyl5-(5-fluoro-2,4-dioxo-3,4-dihydropyrimidin-1(2H)-yl)-3-methyltetrahydrofuran-2,3-dicarboxylate], the CC50 at 24 h in series [1], in series [4], in [5], in [7] and in series [8] was over 460 µM throughout. Moreover, the pEC50 was under 3.34 in series [2] and 3.72 in series [9]. For the same molecule, the “D. melanogaster dNK substrate phosphorylation” value in series [3] is <0.1 10^6 μmol/min mg. Moreover, the “T. maritima TK substrate phosphorylation” value in series [6] was 4.2 10^−3 μmol/min mg.

`CCOC(=O)[C@@H]1O[C@H](n2cc(C)c(=O)[nH]c2=O)CC1(C)C(=O)OCC` (stereo partly drawn) [LCB-1019, (2R,5S)-diethyl 3-methyl-5-(5-methyl-2,4-dioxo-3,4-dihydropyrimidin-1(2H)-yl)tetrahydrofuran-2,3-dicarboxylate]: the CC50 at 24 h in [1], in series [4], in [5], in series [7] and in series [8] was over 460 µM in each case. The pEC50 in series [2] and in series [9] was under 3.34 throughout. For the same molecule, the “D. melanogaster dNK substrate phosphorylation” value in series [3] was <0.1 10^6 μmol/min mg. In series [6], the “T. maritima TK substrate phosphorylation” value is 6.1 10^−3 μmol/min mg.

As to `CCOC(=O)[C@@H]1O[C@H](n2ccc(=O)[nH]c2=O)CC1(C)C(=O)OCC` (stereo partly drawn) [LCB-1025, (2R,5S)-diethyl 5-(2,4-dioxo-3,4-dihydropyrimidin-1(2H)-yl)-3-methyltetrahydrofuran-2,3-dicarboxylate], the CC50 at 24 h in [1], in [4], in [5], in series [7] and in [8] was over 460 µM each time. Besides, the pEC50 in [2] and in series [9] was under 3.34 in each case. Also, in series [3], the “D. melanogaster dNK substrate phosphorylation” value is <0.1 10^6 μmol/min mg. Further, the “T. maritima TK substrate phosphorylation” value in [6] was <1 10^−3 μmol/min mg.

By CC50 is commonly meant the concentration giving 50% cytotoxicity. What is called pEC50 is the negative decadic logarithm of the EC50, by convention in mol/L.
